Data as given in PubChem BioAssay AID977622 (Broad Institute, 2014).
Records with an inconclusive call do not appear. Calls of active or inactive are those of the source.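 How the source made its calls: active means Green signal of the normal strain falls at least twice as much as red signal of the resistant mutant, with overall culture growth loss under a set limit; inconclusive means no clear call, values can overlap the other calls; inactive means the rest.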

Tested on: E. coli WT ribosome GFP fluorescence, mixed culture, 24 h
Assay: growth inhibition of wild-type GFP E. coli, dose response, h38 mutant RFP, cherry-pick (AID 977622)
[1] = E. coli mixed culture, 24 h, measured here: total growth OD600

## COc1ccc(C(=O)NCCc2ccccn2)cc1S(=O)(=O)Nc1ccc(Br)cc1
  AC50: > 100 µM (inactive)

## Cc1ccc2oc(C(=O)N(CCO)Cc3ccccc3)c(C)c2c1
  AC50: > 100 µM (inactive)
[1]
  AC50: 37.1 µM

## COc1ccccc1Cn1c(=S)[nH]c2ccccc2c1=O
  AC50: > 100 µM (inactive)
[1]
  AC50: 42.1 µM

## CO[C@@H]1CN(C)C(=O)c2cc(NC(=O)C3CCCC3)ccc2OC[C@@H](C)N(C(=O)Nc2ccc(C(F)(F)F)cc2)C[C@H]1C
  AC50: > 100 µM (inactive)
[1]
  AC50: 49.5 µM

## S=c1nc(-c2cc(Cl)cc(Cl)c2)[nH][nH]1
  AC50: > 100 µM (inactive)

## CCN(c1ccccc1)S(=O)(=O)c1ccc(Cl)c(NC(=O)CSc2n[nH]c(N)n2)c1
  AC50: > 100 µM (inactive)
[1]
  AC50: > 100 µM

## O=C(Cc1ccc(Br)cc1)Nc1cccc(-c2cn3c(n2)SCC3)c1
  AC50: > 100 µM (inactive)
[1]
  AC50: > 100 µM

## COc1ccc([C@H]2C[C@H](O)C[C@@H](CCn3cc(-c4ccccc4)nn3)O2)cc1
[1]
  AC50: > 100 µM

## CCCC[n+]1ccn(-c2nc3ccccc3nc2[N-]S(=O)(=O)c2cccs2)c1
  AC50: > 100 µM (inactive)
[1]
  AC50: > 100 µM

## Clc1ccc(-c2nc3ccc(Br)cn3c2Cc2ccsc2)cc1
  AC50: > 100 µM (inactive)
[1]
  AC50: 35 µM

## CCNc1nc(N)c(C(=O)C23CC4CC(CC(C4)C2)C3)s1
[1]
  AC50: > 100 µM

## O=C(CC(=O)c1cccs1)c1ccncc1
  AC50: > 100 µM (inactive)
[1]
  AC50: > 100 µM

## CCc1nnc(NS(=O)(=O)c2ccc(NC(=O)c3cccc(Cl)c3)cc2)s1
  AC50: > 100 µM (inactive)

## Cc1cccc(Oc2ccc(NC(=O)c3ccccc3C(=O)O)cc2)c1
[1]
  AC50: > 100 µM

## O=C(Nc1ccn(Cc2ccc(Cl)cc2)n1)c1ccccc1
[1]
  AC50: > 100 µM

## Cc1cc(C(=O)Nc2cccc3c2O[C@H](CN(C)S(=O)(=O)c2ccc(Cl)cc2)[C@H](C)CN([C@H](C)CO)C3=O)n(C)n1
  AC50: > 100 µM (inactive)
[1]
  AC50: 27.8 µM

## Cc1ccc(S(=O)(=O)NC(C)C(=O)NCc2ccc(Cl)cc2)cc1 (stereo unspecified)
[1]
  AC50: > 100 µM

## O=C(O)c1ccc2c(c1)N(Cc1ccc(F)cc1)C(=O)c1ccccc1S2
  AC50: > 100 µM (inactive)

## CCc1ccc2[nH]c(C(=O)Nc3ccc4c(c3)OCO4)cc2c1
  AC50: > 100 µM (inactive)

## CCOC(=O)c1cccc(OS(=O)(=O)Cc2ccccc2)c1
  AC50: > 100 µM (inactive)
[1]
  AC50: > 100 µM

## COC(=O)C[C@H]1C[C@@H]2c3cc(NC(=O)Nc4ccc(C(F)(F)F)cc4)ccc3O[C@@H]2[C@H](CO)O1
  AC50: > 100 µM (inactive)
[1]
  AC50: > 100 µM

## N#Cc1cccc(-c2ccc3c(c2)[C@H]2[C@H](CCN2C(=O)c2ccccc2F)[C@H](CO)N3)c1
  AC50: > 100 µM (inactive)

## CCOC(=O)c1sc(NC(=O)CN2CCN(c3ccccc3)CC2)nc1C
  AC50: > 100 µM (inactive)

## O=C(NCc1ccc(-c2nc3ccccc3s2)cc1)c1ccco1
  AC50: > 100 µM (inactive)
[1]
  AC50: 3 µM

## CC(Nc1ncnc2ccccc12)c1ccccc1 (stereo unspecified)
  AC50: > 100 µM (inactive)
[1]
  AC50: > 100 µM

## CCc1nn2cc(C(=O)c3cc(Cl)ccc3O)cnc2c1-c1ccc(F)cc1
  AC50: > 100 µM (inactive)
[1]
  AC50: > 100 µM

## C[C@@H]1CN([C@H](C)CO)C(=O)c2cccc(NC(=O)c3ccncc3)c2O[C@@H]1CN(C)S(=O)(=O)c1ccc(Cl)cc1
  AC50: > 100 µM (inactive)

## COc1cc2c(c(OC)c1OC)C(c1ccc3c(c1)OCO3)CC(=O)O2 (stereo unspecified)
[1]
  AC50: > 100 µM

## Cc1ccc(S(=O)(=O)Nc2ccccc2CNc2cccc(C)n2)cc1
[1]
  AC50: > 100 µM

## Cc1ccccc1-n1ncc2c1CC(C)(C)CC2NC(=O)CCN1Cc2ccccc2C1=O (stereo unspecified)
  AC50: > 100 µM (inactive)
[1]
  AC50: > 100 µM

## COCc1c(C#N)c(NCCc2ccc(F)cc2)nc(C)c1[N+](=O)[O-]
  AC50: > 100 µM (inactive)

## Cc1nc(C)c(-c2ccn(S(=O)(=O)c3ccc(Cl)cc3)n2)o1
  AC50: > 100 µM (inactive)

## O=C(Nc1ccc(C(=O)Nc2ccccc2Cl)cc1)c1cccnc1
[1]
  AC50: > 100 µM

## CN(C)C(=O)C1C2NC(=S)N(c3cccc(Cl)c3)C1(C)Oc1ccc(Cl)cc12 (stereo unspecified)
  AC50: > 100 µM (inactive)
[1]
  AC50: > 100 µM

## O=C(NCCc1ccc(Cl)cc1)c1ccc2nc[nH]c2c1
  AC50: > 100 µM (inactive)

## Cc1ccc2nc(-c3ccc(Cl)cc3)c(Cc3ccccc3C(F)(F)F)n2c1
[1]
  AC50: > 100 µM

## CCN(CC)c1nc(Oc2ccc(C(=O)OC)cc2)nc(N2CCOCC2)n1
[1]
  AC50: > 100 µM

## CC1CN(CC(=O)Nc2nc3ccccc3s2)CC(C)O1 (stereo unspecified)
  AC50: > 100 µM (inactive)

## O=S(=O)(NCc1ccc2c(c1)OCO2)c1ccc2c(c1)oc1ccccc12
  AC50: > 100 µM (inactive)
[1]
  AC50: 40.8 µM

## Cn1cc(CN2CCCC(C(=O)Nc3cccc(-c4cc5ccccc5[nH]4)c3)C2)cn1 (stereo unspecified)
[1]
  AC50: > 100 µM

## O=C(CN(CCO)c1ccccc1)Nc1cccc(S(=O)(=O)N2CCCC2)c1
  AC50: > 100 µM (inactive)

## Cc1nnc2sc(SCC(=O)Nc3ccc(Br)cc3)nn2c1=O
  AC50: > 100 µM (inactive)
[1]
  AC50: > 100 µM

## Cc1ccsc1C(=O)N1CCCC(C(=O)c2cc(F)ccc2F)C1 (stereo unspecified)
  AC50: > 100 µM (inactive)
[1]
  AC50: > 100 µM

## Brc1ccc(-n2cnc(-c3ccccc3)c2)cc1
  AC50: > 100 µM (inactive)

## NS(=O)(=O)c1cccc(NC(=O)COc2ncnc3c2cnn3-c2ccccc2)c1
  AC50: > 100 µM (inactive)

## Cc1ccc(Nc2cc(C(=O)NCCCN3CCOCC3)c3ccccc3n2)cc1C
  AC50: > 100 µM (inactive)
[1]
  AC50: > 100 µM

## CC(C)Oc1ccc(C(CC(=O)O)NC(=O)C(Sc2ccccc2)c2ccccc2)cc1 (stereo unspecified)
  AC50: > 100 µM (inactive)
[1]
  AC50: > 100 µM

## COc1ccc(-c2ccccc2)cc1NC(=O)c1ccncc1
  AC50: > 100 µM (inactive)

## O=C1N[C@@H](Cc2ccccc2)COC(=O)[C@H](Cc2ccc(F)cc2)C/C=C\C[C@H]1CC(=O)N(CCO)Cc1ccccc1
  AC50: > 100 µM (inactive)

## O=C(NCc1ccc2c(c1)OCO2)C1CCCN1S(=O)(=O)c1ccc(Cl)cc1 (stereo unspecified)
  AC50: > 100 µM (inactive)

## CC(=O)Nc1cccc(-c2ccnc3c2CC(C(=O)Nc2ccc4c(c2)OCO4)O3)c1 (stereo unspecified)
  AC50: > 100 µM (inactive)

## Cc1cccc(NC(=O)c2c(C)nn(-c3ccccc3)c2Cl)c1
  AC50: > 100 µM (inactive)

## Cc1noc(NS(=O)(=O)c2ccc(NC(=O)c3cc(-c4ccccc4Cl)nc4ccccc34)cc2)c1C
  AC50: > 100 µM (inactive)

## COc1ccccc1NS(=O)(=O)c1cc(C(=O)Nc2ccc(S(=O)(=O)Nc3onc(C)c3C)cc2)ccc1C
  AC50: > 100 µM (inactive)

## CCN(CC)CCN(C(=O)c1ccc2c(c1)CCCC2)c1nc2ccc(F)cc2s1
  AC50: > 100 µM (inactive)
[1]
  AC50: 46.3 µM

## Cc1ccc(NC(=O)c2ccc([N+](=O)[O-])o2)c(C)c1
  AC50: > 100 µM (inactive)

## O=[N+]([O-])c1ccc(N2CCOCC2)c2c1no[n+]2[O-]
  AC50: > 100 µM (inactive)
[1]
  AC50: > 100 µM

## Cc1ccc(-c2cc(-c3ccc(C)cc3)[n+](-c3ccc(C(=O)[O-])cc3)c(-c3ccc(C)cc3)c2)cc1
  AC50: > 100 µM (inactive)

## COc1ccc(-c2csc(NC(=O)c3ccoc3C)n2)cc1
  AC50: > 100 µM (inactive)
[1]
  AC50: > 100 µM

## C[C@H]1CN([C@@H](C)CO)C(=O)CCCn2nncc2CO[C@@H]1CN(C)Cc1ccccc1C(F)(F)F
[1]
  AC50: > 100 µM

## COc1ccc2oc(C(=O)NCc3ccco3)c(C)c2c1
  AC50: > 100 µM (inactive)

## COC(=O)c1cc2c(c3c4cc(F)ccc4n(S(=O)(=O)c4cccc(C)c4)c13)C(=O)N(Cc1ccco1)C2
[1]
  AC50: > 100 µM

## C[C@]12C(=O)N(c3ccc(F)cc3)C(=O)N1[C@@H]1c3ccccc3OC[C@@H]1[C@H]2c1ccccc1
[1]
  AC50: > 100 µM

## O=C(Cc1cccc(NC(=O)C2CCN(C(=O)C3CCCCC3)CC2)c1)Nc1cccc(C(=O)N2CCCC2)c1
  AC50: > 100 µM (inactive)
[1]
  AC50: > 100 µM

## COc1ccccc1CNC(=O)CN1C(=O)NC(c2ccccc2)(c2ccccc2)C1=O
  AC50: > 100 µM (inactive)

## Cc1cc(-c2ccc(C)c(S(=O)(=O)NC(C)Cc3ccco3)c2)on1 (stereo unspecified)
  AC50: > 100 µM (inactive)
[1]
  AC50: 46.2 µM

## CCSc1nc2ccccc2c(=O)n1Cc1ccc(F)cc1
  AC50: > 100 µM (inactive)

## O=C(Cn1c(CO)nc2ccccc21)NCCc1ccc(F)cc1
  AC50: > 100 µM (inactive)

## Nc1nn(-c2ccccc2)c2ccc([N+](=O)[O-])cc12
  AC50: > 100 µM (inactive)

## Nc1ccc(C(=O)OCCc2ccccc2)cc1
  AC50: > 100 µM (inactive)

## COc1ccc(NC(=O)Nc2cccc3c2O[C@H](CN(C)S(=O)(=O)c2ccc(Cl)cc2)[C@H](C)CN([C@H](C)CO)C3=O)cc1
  AC50: > 100 µM (inactive)
[1]
  AC50: 44.2 µM

## COc1ccc(NC(=O)Nc2cccc3c2O[C@@H](CN(C)S(=O)(=O)c2ccc(Cl)cc2)[C@@H](C)CN([C@@H](C)CO)C3=O)cc1
  AC50: > 100 µM (inactive)
[1]
  AC50: 47.3 µM

## COC(=O)c1ccc(OS(=O)(=O)c2ccc(NC(C)=O)cc2)cc1
  AC50: > 100 µM (inactive)

## COc1ccc(CC(=O)Nc2nc(-c3cc(OC)ccc3OC)cs2)cc1
  AC50: > 100 µM (inactive)
[1]
  AC50: 8.91 µM

## CCCN(CC1CC1)C(=O)CSc1ncnc2sccc12
  AC50: > 100 µM (inactive)

## O=C1C(c2ccccc2)c2ccccc2N1Cc1ccccc1 (stereo unspecified)
  AC50: > 100 µM (inactive)

## Cc1c(Cc2ccc3c(c2)OCO3)sc(NC(=O)C2CC2)c1C(N)=O
  AC50: > 100 µM (inactive)
[1]
  AC50: 34.7 µM

## CN1OC[C@@H]2CN(C(=O)c3ccco3)[C@H](c3ccc(-c4ccc(C#N)cc4)cc3)C[C@@H]21
[1]
  AC50: > 100 µM

## NS(=O)(=O)c1cc(C(=O)OCC(=O)Nc2ccccc2[N+](=O)[O-])ccc1Cl
[1]
  AC50: > 100 µM

## S=C1SCN(Cc2cccnc2)CN1Cc1ccccc1
  AC50: > 100 µM (inactive)

## C=CCNc1ccc2c(c1)OC[C@H](CC(C)C)NS2(=O)=O
[1]
  AC50: > 100 µM

## CC(=O)Nc1cccc2c1Cc1cc([N+](=O)[O-])ccc1-2
  AC50: > 100 µM (inactive)

## O=C(O)c1ccc(Oc2ccc([N+](=O)[O-])cc2)c([N+](=O)[O-])c1
  AC50: > 100 µM (inactive)

## CCN(C(=O)c1ccnc(C(C)(C)C)c1)c1ccccc1
  AC50: > 100 µM (inactive)

## Cc1ccc(CNC(=O)c2ccc(Br)o2)cc1
  AC50: > 100 µM (inactive)

## c1cc2cc(-c3c(-c4ccc5c(c4)OCO5)noc3-c3ccsc3)ccc2[nH]1
  AC50: > 100 µM (inactive)
